Test results from ChEMBL document CHEMBL1201862, “PubChem BioAssay data set” (2004).
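Tested at 5 concentrations; 48 h exposure; 96-well plates; endpoints linearly interpolated, else capped at highest concentration. Abbreviation: GI50, concentration required for 50% inhibition of growth.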 Calls of active or inactive are those of the source. Rule as the data show it: active = GI50 up to about 1.1 µM and inactive = higher.

Legend:
Test in all cases: DTP human tumour cell line panel, 48 h
A549 = test system: A549
HCT-116 = test system: HCT-116
HCT-15 = test system: HCT-15
HOP-62 = test system: HOP-62
HOP-92 = test system: HOP-92
Hs-578T = test system: Hs-578T
K562 = test system: K562
LOX IMVI = test system: LOX IMVI
M14 = test system: M14
MDA-MB-435 = test system: MDA-MB-435
NCI-H23 = test system: NCI-H23
NCI/ADR-RES = test system: NCI/ADR-RES
OVCAR-8 = test system: OVCAR-8
SF-295 = test system: SF-295
SF-539 = test system: SF-539
SK-MEL-28 = test system: SK-MEL-28
SNB-75 = test system: SNB-75
SR = test system: SR
SW-620 = test system: SW-620
T47D = test system: T47D

Compound | GI50 (A549) | GI50 (HCT-116) | GI50 (HCT-15) [µM] | GI50 (HOP-62) | GI50 (HOP-92) | GI50 (Hs-578T) | GI50 (K562) | GI50 (LOX IMVI) | GI50 (M14) | GI50 (MDA-MB-435) | GI50 (NCI-H23) | GI50 (NCI/ADR-RES) | GI50 (OVCAR-8) | GI50 (SF-295) | GI50 (SF-539) | GI50 (SK-MEL-28) | GI50 (SNB-75) | GI50 (SR) | GI50 (SW-620) | GI50 (T47D)
N#C/C(=C\c1ccc([N+](=O)[O-])o1)c1n[nH]c(Cc2ccccc2)n1 | 2.56 µM (inactive) | 0.232 µM (active) | 0.281 | 2.62 µM (inactive) | 2.77 µM (inactive) | 3.98 µM (inactive) | 1.55 µM (inactive) | 1.07 µM (active) | 1.63 µM (inactive) | 1.67 µM (inactive) | 1.21 µM (inactive) | 2.79 µM (inactive) | 2.84 µM (inactive) | 7.26 µM (inactive) | 1.32 µM (inactive) | 2.03 µM (inactive) | 2.52 µM (inactive) | 0.173 µM (active) | 0.277 µM (active) | 2 µM (inactive)
O=[N+]([O-])c1cc2[nH]nnc2c2nonc12 | 61.5 µM (inactive) | 20.5 µM (inactive) | 29.2 | 55 µM (inactive) | 36.5 µM (inactive) | 17.4 µM (inactive) | 22.8 µM (inactive) | 20.1 µM (inactive) | 22.4 µM (inactive) | 13.1 µM (inactive) | 26.5 µM (inactive) | 48.3 µM (inactive) | 21.1 µM (inactive) | 31.7 µM (inactive) | 22.8 µM (inactive) | 38.5 µM (inactive) | 38.5 µM (inactive) | 6.08 µM (inactive) | 30.7 µM (inactive) | > 100 µM (inactive)
COc1ncnc2c(NC3OC(CO)C(O)C3O)ncnc12 (stereo not given) | 0.131 µM (active) | 0.0541 µM (active) | 0.179 | 0.408 µM (active) | 0.0156 µM (active) | 1.03 µM (active) | 0.0306 µM (active) | 0.0445 µM (active) | 0.296 µM (active) | 0.578 µM (active) | 0.24 µM (active) | 0.417 µM (active) | 0.329 µM (active) | 0.579 µM (active) | 0.246 µM (active) | 6.89 µM (inactive) | 0.735 µM (active) | 0.0266 µM (active) | 0.238 µM (active) | 0.708 µM (active)
CC(=O)O[C@H]1CC[C@@]2(C)C(=CC[C@H]3[C@@H]4C/C(=C\c5ccncc5)[C@H](OC(C)=O)[C@@]4(C)CC[C@@H]32)C1 | 6.08 µM (inactive) | 11.9 µM (inactive) | 3.45 | 4.54 µM (inactive) | 3.48 µM (inactive) | 6.97 µM (inactive) | 3.15 µM (inactive) | 3.48 µM (inactive) | 10.9 µM (inactive) | 12.9 µM (inactive) | 4.56 µM (inactive) | 4.34 µM (inactive) | 11.8 µM (inactive) | 5.02 µM (inactive) | 3.95 µM (inactive) | 5.74 µM (inactive) | 7.62 µM (inactive) | 2.7 µM (inactive) | 4.14 µM (inactive) | 14.2 µM (inactive)
CC1(C)CCC2(C(=O)OC3OC(CO)C(O)C(O)C3O)CCC3(CO)C(=CCC4C5(C)CC(O)C(O)C(C)(C(=O)OC6OC(CO)C(O)C(O)C6O)C5CCC43C)C2C1 (stereo not given) | > 100 µM (inactive) | > 100 µM (inactive) | > 100 | > 100 µM (inactive) | > 100 µM (inactive) | > 100 µM (inactive) | > 100 µM (inactive) | > 100 µM (inactive) | > 100 µM (inactive) | > 100 µM (inactive) | > 100 µM (inactive) | > 100 µM (inactive) | > 100 µM (inactive) | > 100 µM (inactive) | > 100 µM (inactive) | > 100 µM (inactive) | > 100 µM (inactive) | 44.8 µM (inactive) | > 100 µM (inactive) | > 100 µM (inactive)
C[C@@H]1CC[C@@]2(OC1)O[C@H]1C[C@H]3[C@@H]4CC[C@H]5C[C@@H](OC6OC(CO)C(OC7OC(CO)C(O)C(OC8OCC(O)C(O)C8O)C7OC7OC(CO)C(O)C(O)C7O)C(O)C6O)[C@H](O)C[C@]5(C)[C@H]4CC[C@]3(C)[C@H]1[C@@H]2C (stereo not given in full) | 0.855 µM (active) | 3.88 µM (inactive) | 3.4 | 1.42 µM (inactive) | 23.6 µM (inactive) | 5.75 µM (inactive) | 2.11 µM (inactive) | 1.39 µM (inactive) | 15.2 µM (inactive) | 13 µM (inactive) | 2.11 µM (inactive) | 2.52 µM (inactive) | 2.97 µM (inactive) | 3.89 µM (inactive) | 2.69 µM (inactive) | 15.4 µM (inactive) | 13.6 µM (inactive) | 14.3 µM (inactive) | 4.19 µM (inactive) | 5.38 µM (inactive)
COC(=O)C1=C(C)NC(C)=C(C(=O)OC)C1c1cccc(/[N+]([O-])=C/c2ccccc2)c1 | > 100 µM (inactive) | 16.7 µM (inactive) | 17.1 | > 100 µM (inactive) | 23.4 µM (inactive) | 42.1 µM (inactive) | > 10 µM (inactive) | 33.7 µM (inactive) | 18.6 µM (inactive) | 19.7 µM (inactive) | 33.3 µM (inactive) | 23.2 µM (inactive) | 17.5 µM (inactive) | > 100 µM (inactive) | > 100 µM (inactive) | 17.5 µM (inactive) | 41.7 µM (inactive) | 21.8 µM (inactive) | 21.3 µM (inactive) | 17.3 µM (inactive)
